Experimental data reported in paper PMC7750294 (Journal of pharmaceutical sciences, 2020).
Where “and” joins values, the source holds several entries; their conditions need not be identical. Equal values may be shown once. Read-outs that look alike come from different tables or passages of the source. One block for each compound: values may come before it.

Assays:
Caco-2 cell monolayers = conditions: cited from earlier work; for Reference Papp,caco-2 (7.4:7.4): ref Simcyp library value
OATP1B3 [1] = target: T1, OATP1B3 (Homo sapiens, UniProt Q9NPD5); conditions: cited from earlier work
T1 sequence (Q9NPD5 1-702): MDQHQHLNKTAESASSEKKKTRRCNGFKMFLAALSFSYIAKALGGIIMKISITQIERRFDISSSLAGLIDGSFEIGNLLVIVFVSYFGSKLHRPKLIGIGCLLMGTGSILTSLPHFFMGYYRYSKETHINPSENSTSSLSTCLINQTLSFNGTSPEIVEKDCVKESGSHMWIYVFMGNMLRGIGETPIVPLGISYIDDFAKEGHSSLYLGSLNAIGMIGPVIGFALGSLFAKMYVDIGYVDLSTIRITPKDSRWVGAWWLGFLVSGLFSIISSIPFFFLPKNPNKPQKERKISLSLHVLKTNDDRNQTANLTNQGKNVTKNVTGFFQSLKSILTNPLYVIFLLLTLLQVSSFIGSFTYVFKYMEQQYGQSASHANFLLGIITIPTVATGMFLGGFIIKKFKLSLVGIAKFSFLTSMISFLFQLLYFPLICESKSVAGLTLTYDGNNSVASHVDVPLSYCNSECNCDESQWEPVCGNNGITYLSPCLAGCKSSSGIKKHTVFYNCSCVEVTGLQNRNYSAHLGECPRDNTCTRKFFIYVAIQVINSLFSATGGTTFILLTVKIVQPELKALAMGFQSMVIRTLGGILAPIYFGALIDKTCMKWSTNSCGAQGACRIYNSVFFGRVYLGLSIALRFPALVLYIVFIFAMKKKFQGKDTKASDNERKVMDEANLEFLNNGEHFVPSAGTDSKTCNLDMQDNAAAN

P-gp = conditions: cited from earlier work
OATP1B1 [2] = target: T2, OATP1B1 (Homo sapiens, UniProt Q9Y6L6); conditions: read-out: Apparent Km of transport by OATP1B1; cited from earlier work
T2 sequence (Q9Y6L6 1-691): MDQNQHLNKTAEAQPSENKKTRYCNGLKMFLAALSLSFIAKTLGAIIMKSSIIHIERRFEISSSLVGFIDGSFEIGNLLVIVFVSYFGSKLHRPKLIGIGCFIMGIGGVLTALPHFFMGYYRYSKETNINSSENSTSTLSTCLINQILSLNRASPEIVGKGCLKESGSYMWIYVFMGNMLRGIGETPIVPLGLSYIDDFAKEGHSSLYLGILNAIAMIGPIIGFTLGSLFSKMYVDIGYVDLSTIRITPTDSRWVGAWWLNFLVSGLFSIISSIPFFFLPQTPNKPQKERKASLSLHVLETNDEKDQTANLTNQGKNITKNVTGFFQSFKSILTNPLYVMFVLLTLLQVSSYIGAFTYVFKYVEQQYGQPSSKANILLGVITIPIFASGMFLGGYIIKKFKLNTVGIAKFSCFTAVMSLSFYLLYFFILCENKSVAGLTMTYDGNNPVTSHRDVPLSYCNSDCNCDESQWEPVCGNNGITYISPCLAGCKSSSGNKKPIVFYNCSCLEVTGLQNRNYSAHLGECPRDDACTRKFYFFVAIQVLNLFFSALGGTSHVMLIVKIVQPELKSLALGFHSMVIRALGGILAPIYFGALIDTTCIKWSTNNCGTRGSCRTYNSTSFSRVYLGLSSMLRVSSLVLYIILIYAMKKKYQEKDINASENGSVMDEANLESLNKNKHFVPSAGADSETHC

[3] = cited from earlier work
OATP1B1 [4] = target: T2, OATP1B1; assay: Inhibition of OATP1B1-mediated [3H]-E217βG accumulation in HEK293-OATP1B1 cells; assay type: cell-based
OATP1B3 [5] = target: T1, OATP1B3; assay: Inhibition of OATP1B3-mediated [3H]-CCK-8 accumulation in HEK293-OATP1B3 cells; assay type: cell-based
Estimation of Iin,max = assay: Estimation of Iin,max; set-up: species or system human; conditions: 960 mg; faFg = 1; Eq. 4
[6] = Vemurafenib PBPK model parameters; set-up: species or system human
[7] = cited from earlier work; for Aqueous solubility: highest/maximum aqueous solubility
[8] = cited from earlier work; remark: listed apart in the source
OATP1B1 [9] = target: T2, OATP1B1; conditions: 10 μM vemurafenib, aqueous buffer; cited from earlier work
[10] = IC50,total against OATP1B1, 100% human plasma (pH 7.4), [3H]-E217βG 5 μM, 3 min, HEK293-OATP1B1
[11] = vemurafenib 150 μM in human plasma

Compound: CNC(=C[N+](=O)[O-])NCCSCc1ccc(CN(C)C)o1 [ranitidine]
Reference Papp,caco-2 (7.4:7.4) (Caco-2 cell monolayers): 1.2 10^−6 cm/s

Compound: Cholecystokinin 8 [CCK-8]
Km (OATP1B3 [1]): ~3.8 µM

Compound: C[C@H]1O[C@@H](O[C@H]2[C@@H](O)C[C@H](O[C@H]3[C@@H](O)C[C@H](O[C@H]4CC[C@@]5(C)[C@H](CC[C@@H]6[C@@H]5C[C@@H](O)[C@]5(C)[C@@H](C7=CC(=O)OC7)CC[C@]65O)C4)O[C@@H]3C)O[C@@H]2C)C[C@H](O)[C@@H]1O [digoxin]
Mean terminal half-life (P-gp; single dose of digoxin alone): 35.0 h
Mean terminal half-life (P-gp; single dose of digoxin co-administered with vemurafenib): 56.4 h

Compound: C[C@]12CC[C@@H]3c4ccc(O)cc4CC[C@H]3[C@@H]1CC[C@@H]2O[C@@H]1O[C@H](C(=O)O)[C@@H](O)[C@H](O)[C@H]1O [E217βG, estradiol 17 β-D-glucuronide]
Km (OATP1B1 [2]): ~8.3 µM
fu (reported protein binding) [3]: 0.39

Compound: CN/C(=N/CCSCc1nc[nH]c1C)NC#N [cimetidine]
Reference Papp,caco-2 (7.4:7.4) (Caco-2 cell monolayers): 4 10^−6 cm/s

IC50 (OATP1B1 [4]; [10]): 175 µM
Effect on OATP1B1-mediated transport vs vehicle control (OATP1B1 [4]; vemurafenib 0.78 μM in HBSS buffer (pH 7.4), protein-free, E217βG […], 2 min): does not affect
OATP1B1-mediated transport remaining (OATP1B1 [4]; [11]): 60.2 % of control
OATP1B1-mediated [3H]-E217βG transport (OATP1B1 [4]; vemurafenib 500 μM in 100% human plasma, E217βG 5 μM, 3 min): 0.38 ± 0.1 fold of control
IC50 (OATP1B3 [5]; IC50,total against OATP1B3, 100% human plasma (pH 7.4), [3H]-CCK-8 1 μM, 3 min, HEK293-OATP1B3): 231 µM
IC50 at 3 min (OATP1B3 [5]; human, HEK293 cells over-expressing OATP1B3 (HEK293-OATP1B3), pH 7.4, probe [3H]-CCK-8 (1 μM), IC50,total against OATP1B3, 100% human plasma (pH 7.4), [3H]-CCK-8 1 μM, 3 min, HEK293-OATP1B3): 232 ± 26 µM
Effect on OATP1B3-mediated transport vs vehicle control (OATP1B3 [5]; vemurafenib 0.78 μM in HBSS buffer (pH 7.4), protein-free, CCK-8 1 μM, 3 min): does not affect
OATP1B3-mediated transport remaining (OATP1B3 [5]; [11]): 72.1 % of control
OATP1B3-mediated [3H]-CCK-8 transport (OATP1B3 [5]; vemurafenib 500 μM in 100% human plasma, CCK-8 1 μM, 3 min): 0.13 ± 0.04 fold of control
Iin,max (estimated total maximum plasma concentration at the inlet to the liver) (Estimation of Iin,max): 132 µM and 132.5 µM
Vd ([6]; human, oral, 960 mg): 0.9 L/kg
CLR (renal clearance) ([6]; set from 0.97% of oral dose recovered in urine as parent): 0.01787 L/h
Compound: CCCS(=O)(=O)Nc1ccc(F)c(C(=O)c2c[nH]c3ncc(-c4ccc(Cl)cc4)cc23)c1F [vemurafenib]
pKa (first) ([7]; diprotic acid): 7.9
pKa (second) ([7]; diprotic acid): 11.1
Aqueous solubility [7]: 0.78 µM
Aqueous solubility ([7]; listed as Vemurafenib): ~ 0.78 μM
Log PO:W ([7]; neutral species octanol:buffer partition coefficient): 3
Passive permeability coefficient in Caco-2 cell monolayers (Caco-2 cell monolayers; ranitidine as reference compound): 2.9 10^−6 cm/s
Time to steady state ([8]; 960 mg BID multiple dosing): 15 to 21 days
AUC0–8 h accumulation, day 15 vs day 1 ([8]; 960 mg BID): 23.2 ± 16.5 fold
CLpo [8]: 2.67 (53.5) L/h, CV%
Median accumulation ratio [8]: 7.36
Oral dose recovered in urine as parent [8]: 0.97%
Time to steady state for most patients [8]: ≤ 22 days
ka, absorption rate constant ([8]; oral, population pharmacokinetic analysis): 0.19 h⁻¹
Decrease of OATP1B1-mediated [3H]-E217βG transport (OATP1B1 [9]): ~ 75% and 75%
Blood-to-plasma ratio (RB) ([3]; [14C]-vemurafenib): 0.58
Protein bound in human plasma [3]: > 99%
Unbound fraction in human plasma ([3]; independent of concentration 0.5–100 μM): 0.0014
Uptake in OATP1B3-overexpressing cells vs vehicle control cells (OATP1B3 [1]): ~ 1.5 fold

IC50 (OATP1B1 [4]; [10]): 2.1 µM
IC50 (OATP1B1 [4]; read-out: Estimated IC50,unbound,OATP1B1, IC50,total 2.1 μM × fu,plasma 0.116): 0.24 µM
Compound: CO[C@H]1/C=C/O[C@@]2(C)Oc3c(C)c(O)c4c(O)c(c(/C=N/N5CCN(C)CC5)c(O)c4c3C2=O)NC(=O)/C(C)=C\C=C\[C@H](C)[C@H](O)[C@@H](C)[C@@H](O)[C@@H](C)[C@H](OC(C)=O)[C@@H]1C [rifampicin]
